Key:
[1] = system: hyperlocomotion induced by methamphetamine in mice; assay: Anti-methamphetamine effect: inhibition of hyperlocomotion induced by methamphetamine in mice; type: in vivo, Male ddY mice; conditions: Mus musculus, 0.25 h, ip, 15 min after methamphetamine 2 mg/kg sc, locomotion measured for thirty minutes
Experimental: The antipsychotic activity of the compound according to the present invention was assayed by an index the inhibitory activity on the stimulation of hyperlocomotion induced by methamphetamine in mice. Male ddY mice having a weight of 25 - 35 g were divided into groups each consisting of 3 - 6 animals. The mouse was subcutaneously administered with methamphetamine (2 mg/kg). Fifteen minutes after this administration, the compound of the present invention was intraperitoneally administered. After further fifteen minutes, the animal was then placed in a transparent acrylic box (30 cm x 30 cm x 30 cm) mounted on an apparatus to measure the locomotion for thirty minutes (MUROMACHI KIKAI, ANIMEX AUTO MK-110).

catalepsy = assay: Cataleptogenic effect (extrapyramidal effect, catalepsy provoking activity) in mice; conditions: male, ddY, mouse, in vivo, ip, catalepsy observed after 20, 30 and 40 minutes
Experimental: The extrapyramidal effect of the compounds according to the present invention was assayed by an index the catalepsy provoking activity as a representative pharmacological evaluation method of the extrapyramidal effect. Male ddY mice having a body weight of 25 - 35 g which were divided into groups each consisting of 3 - 6 animals were subjected to the test. The compound of the present invention was administered intraperitoneally to observe catalepsy after 20, 30 and 40 minutes, respectively. Catalepsy was judged as positive in such cases that a mouse whose front paw was compulsorily hung up on an iron bar having a diameter of 1 mm and horizontally laid at a height of 3 cm remained in such a strained posture for more than 30 seconds. […]

dopamine-D2 receptor = molecular target: T1, dopamine-D2 receptor (Rattus norvegicus, UniProt P61169); assay: Binding to dopamine-D2 receptor, [3H]spiperone, P2 fraction of rat cerebral corpus striatum; conditions: read-out: Inhibition at 10^-7 M (%)
T1 construct: using a P2 fraction of a rat cerebral corpus striatum; from tissue; host or cells: rat cerebral corpus striatum, P2 membrane fraction
Experimental: The affinity of the compound of the present invention for D2 receptors was studied using a P2 fraction of a rat cerebral corpus striatum. The rat cerebral corpus striatum was homogenized in 0.32 M sucrose in an amount of 10 times that of the rat cerebral corpus striatum, and the homogenate was centrifuged at 900 x g for 10 min. […] An incubation buffer (50 mM Tris, 120 mM NaCl, 5 mM KCl, 1 mM MgCl2, 1 mM CaCl2, pH 7.4) was added to the sediment, and the mixture was then centrifuged at 39,000 x g for 20 min. The sediment was obtained as a P2 fraction. The P2 fraction was incubated at 37°C for 30 min in a buffer containing 0.1 nM [^3H]spiperone and the compound of the present invention with various concentrations. The reaction solution was filtered through a Whatman GF/B glass filter, and the amount of bound [^3H]spiperone was measured by a liquid scintillation counter.

serotonin-5-HT2 receptor = molecular target: T2, serotonin-5-HT2 receptor (Rattus norvegicus, UniProt P14842); assay: Binding to serotonin-5-HT2 receptor, [3H]ketanserin, P2 fraction of rat cerebral cortex; conditions: read-out: Inhibition at 10^-9 M (%)
T2 construct: a 5-HT2 receptor of a rat cerebral cortex; from tissue; host or cells: rat cerebral cortex, P2 membrane fraction
T2 sequence (P14842 whole entry): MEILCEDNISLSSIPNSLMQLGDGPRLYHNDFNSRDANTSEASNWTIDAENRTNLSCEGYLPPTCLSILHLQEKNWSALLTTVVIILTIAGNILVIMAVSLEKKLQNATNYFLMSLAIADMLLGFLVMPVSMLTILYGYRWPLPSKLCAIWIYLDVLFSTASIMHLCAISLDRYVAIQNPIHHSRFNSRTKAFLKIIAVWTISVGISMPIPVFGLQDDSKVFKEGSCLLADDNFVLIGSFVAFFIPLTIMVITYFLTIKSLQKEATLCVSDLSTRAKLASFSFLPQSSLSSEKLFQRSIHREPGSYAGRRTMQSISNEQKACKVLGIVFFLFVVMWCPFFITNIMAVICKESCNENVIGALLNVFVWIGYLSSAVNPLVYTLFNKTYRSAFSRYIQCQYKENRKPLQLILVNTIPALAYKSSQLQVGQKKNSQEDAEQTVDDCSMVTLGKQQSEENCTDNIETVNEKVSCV
Experimental: The affinity of the compound of the present invention for a 5-HT2 receptor of a rat cerebral cortex was assayed as follows. A P2 fraction was prepared in the same manner as described above in connection with the above (a). The P2 fraction was incubated at 37°C for 15 min in a 50 mM Tris/HCl buffer (pH 7.4) containing 1 nM [^3H]ketanserin and the compound of the present invention with various concentrations, and the amount of bound [^3H]ketanserin was then measured.

T1 sequence (P61169 whole entry): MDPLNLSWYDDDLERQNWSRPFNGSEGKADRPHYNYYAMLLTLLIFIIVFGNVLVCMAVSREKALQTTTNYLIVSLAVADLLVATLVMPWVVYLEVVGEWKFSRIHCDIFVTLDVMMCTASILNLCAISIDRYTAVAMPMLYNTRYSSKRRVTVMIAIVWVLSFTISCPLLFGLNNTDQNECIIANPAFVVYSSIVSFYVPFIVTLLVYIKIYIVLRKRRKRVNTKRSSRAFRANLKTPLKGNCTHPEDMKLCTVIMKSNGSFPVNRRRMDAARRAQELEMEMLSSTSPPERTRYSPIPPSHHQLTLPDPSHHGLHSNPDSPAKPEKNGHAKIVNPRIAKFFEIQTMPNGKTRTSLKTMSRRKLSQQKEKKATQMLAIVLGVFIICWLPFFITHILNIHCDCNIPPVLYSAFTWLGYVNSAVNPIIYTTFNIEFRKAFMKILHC

SMILES: CN(C)CCCN1c2ccccc2Sc2ccc(Cl)cc21 [Chlorpromazine, chlorpromazine, reference compound]
- ED50 [1]: 1.1 mg/kg
- ED50 (catalepsy): 6.2 mg/kg

SMILES: Cc1cc(=O)n2c(C)c(CCN3CCC(c4csc5cc(F)ccc45)CC3)sc2n1 [Example 8, 3,7-Dimethyl-2-[2-[4-(6-fluoro-1-benzothiophen-3-yl)-1-piperidinyl]ethyl]-5H-thiazolo[3,2-a]pyrimidin-5-one]
- inhibition at 0.1 µM (dopamine-D2 receptor): 95.2%

SMILES: Cc1cc(=O)n2c(C)c(CCN3CCC(c4noc5cc(F)ccc45)CC3)sc2n1 [Example 4, 3,7-Dimethyl-2-[2-[4-(6-fluoro-1,2-benzisoxazol-3-yl)-1-piperidinyl]ethyl]-5H-thiazolo[3,2-a]pyrimidin-5-one]
- ED50 [1]: 0.07 mg/kg
- ED50 (catalepsy): 1.2 mg/kg

SMILES: O=C(CCCN1CCC(O)(c2ccc(Cl)cc2)CC1)c1ccc(F)cc1 [Haloperidol, haloperidol, reference compound]
- ED50 [1]: 0.2 mg/kg
- ED50 (catalepsy): 1.3 mg/kg

SMILES: Cc1cc(=O)n2c(CCN3CCC(c4noc5cc(F)ccc45)CC3)csc2n1 [Example 20, 3-[2-[4-(6-Fluoro-1,2-benzisoxazol-3-yl)-1-piperidinyl]ethyl]-5H-7-methylthiazolo[3,2-a]pyrimidin-5-one]
- ED50 [1]: 0.04 mg/kg
- inhibition at 0.001 µM (serotonin-5-HT2 receptor): 66.3%

SMILES: Cc1cn2c(C)c(CCN3CCC(c4noc5cc(F)ccc45)CC3)sc2n1 [Example 11, 3,6-Dimethyl-2-[2-[4-(6-fluoro-1,2-benzisoxazol-3-yl)-1-piperidinyl]ethyl]imidazo[2,1-b]thiazole]
- ED50 [1]: 0.12 mg/kg
- ED50 (catalepsy): 3.3 mg/kg
